Here are results for 1 substance from patent publication US10202604B2, “Methods of using microRNA-141” (Stemirna Therapeutics Co., Ltd., priority 2016, dated 2019).

Data set [1] deals with PPC-1 cells. The data set can be described thus: In vivo tumor regeneration assay. More on the design: species or system NOD/SCID mice. The settings on record: miR-141 over-expression in bulk cells; 100,000 cells per injection. Here is the method: (§1) Average % of CD44^+ cells (as determined by flow analysis; n=3-5) is indicated for each cell type (UD, undetectable). […] Purified CD44^+ Du145 cells were transfected with NC or miR-141 oligos (30 nM, 48 h) and then plated for clonal (1D & 1E) and sphere (1F) assays. Bars represent mean±SD. *, P<0.05; **, P<0.01. […] Shown are tumor images, cell numbers injected (100,000 cells per injection for all models), site of injection (s.c, subcutaneously) and days (d) when tumors were harvested. Tumor weight and incidences with corresponding P values are also indicated. ns, not significant. […] Purified CD44^+ HPCa202 cells were infected with Lenti-ctl or Lenti-141 (MOI 10, 72 h) and plated for clonal assay (1K) or sphere assays in Matrigel (1L & 1M). For 1st generation (1°) sphere assays, 1,000 cells per well were plated in triplicate for each group in 12-well plate and results scored in 11 days. For 2nd generation (2°), the 1° spheres were harvested, digested with Collagenase and Trypsin into single cells, 1,000 cells/well were plated, and results scored in 10 days. Quantification of the colonies was plotted (1 L; **P<0.01).
(§2) Du145, LNCaP, PC3, PPC-1, VCaP cells were obtained from […] and cultured in RPMI-1640 (Life Technologies, Carlsbad, Calif.) plus 7% fetal bovine serum (FBS) with the exception of VCaP, which were cultured in Dulbecco's Modified Eagles Medium (DMEM, Life Technologies) supplemented with 15% fetal bovine serum. Human xenograft prostate tumors, LAPC9 [bone metastasis; positive for androgen receptor (AR) and prostate-specific antigen (PSA)], LAPC4 (lymph node metastasis; AR+ and PSA+), and Du145 ([…]; AR− and PSA−) were maintained in NOD/SCID mice. These cell and xenograft lines, which have been routinely utilized (13, 14, 18, 20, 21, 23, 25, 33) and authenticated by institutional CCSG Cell Line Characterization Core using short tandem repeat (STR) analysis and checked to be free of mycoplasma contamination using the Agilent (Santa Clara, Calif.) MycoSensor QPCR Assay Kit (cat.#302107). NOD/SCID mice were produced mostly from breeding colonies with occasional purchases from the Jackson Laboratories and maintained in standard conditions according to the Institutional Guidelines. All animal experiments were approved by Institutional Animal Care and Use Committee.
(§3) As the CD44^+ prostate cancer cells are prominently devoid of miR-141, its expression in CD44^+ prostate cancer cells was restored and then cancer stem cell assays including stringent clonal (holoclone) and single cell-derived sphere-formation assays (13, 14, 23, 25, 33) were performed. […]

In data set [2] the test system is CD44+ Du145 cells. Nature of the data set: In vivo tumor regeneration assay. More on the design: species or system NOD/SCID mice. The settings on record: enforced miR-141 expression; 100,000 cells per injection. Here is the method:
as §1, §2, §3

Data set [3] relates to CD44+ LAPC9 cells. The data set can be described thus: In vivo tumor regeneration assay. Also noted: species or system NOD/SCID mice. The settings on record: enforced miR-141 expression; 100,000 cells per injection. Here is the method:
as §1, §2, §3

Data set [4] concerns bulk Du145 cells. Nature of the data set: In vivo tumor regeneration assay. More on the design: species or system NOD/SCID mice. Particulars: miR-141 over-expression in bulk cells; 100,000 cells per injection. On the procedure:
as §1, §2, §3

Data set [5] has as its system human CD44 3'-UTR. The data set can be described thus: CD44 3'-UTR luciferase reporter assay. The data set is classed as cell-based. The settings on record: Du145 cells. Here is the method:
FIGS. 3A-3J show partial suppression of epithelial to mesenchymal transition by miR-141 and CD44 as a direct target of miR-141. FIGS. 3A-3B show qPCR analysis of epithelial to mesenchymal transition markers in bulk (FIG. 3A) or CD44^+ (FIG. 3B) Du145 cells transfected with the miR-141 oligos (30 nM; 48 h). Results were presented as the relative expression levels over the cells transfected with the NC oligos. […] GAPDH was used as control and the relative protein levels after normalizing to GAPDH and NC controls were indicated below each lane. […] Shown below is the actual sequence in the region with the mutated miR-141 binding sequence indicated in grey (below). […] Shown are representative images. […] Du145 cells were co-transfected with NC or miR-141 oligos (30 nM) together with pBabe empty vector or pBabe-CD44 vector. After 48 h, cells were harvested for invasion assays. […]
The human CD44 3′-UTR was amplified from Du145 genomic DNA using primers 5′-[…]-3′ (SEQ ID NO: 2) and 5′-[…]-3′ (SEQ ID NO: 3), as previously described (13). […] The luciferase activities were detected using Duo-luciferase reporter assay system (Promega). Human RAC1, CDC42, CDC42EP3, and ARPC5 3′-UTR luciferase reporter constructs were obtained from SwitchGear Genomics (Menlo Park, Calif.) and luciferase activities were measured per the manufacturer's instructions using LightSwitch luciferase assay kit.
(In general: In a reporter assay the amount or activity of a reporter protein is the signal.)

In the case of “miR-141: miR-141 mirVana mimics (Life Technologies); microRNA-141 oligonucleotide may have SEQ ID NO: 1; in some experiments over-expressed by lentiviral vectors (UAACACUGUCUGGUAAAGAUGG; listed as RNA, further chemistry not given here) [miR-141 mirVana mimics (Life Technologies); in some experiments over-expressed by lentiviral vectors]”, the tumor regeneration entry in data set [1] and in data set [4] was “suppressed tumor regeneration” throughout. In addition, the “tumor growth and/or tumor incidence” value in data set [2] and in data set [3] was “significantly suppressed tumor growth and/or reduced tumor incidence” throughout. Besides, in data set [5], the “luciferase activity, CD44 3'-UTR with mutated miR-141 binding sequence” value is given as “abrogated the suppressive effect of miR-141”. Also, the “luciferase activity, wild-type CD44 3'-UTR reporter” value in data set [5] (vs negative control oligos) is listed as “lower”.
